Data taken from patent US8029770B2 (Rutgers, The State University, priority 2003, dated 2011).

Tests used:
[1] = test system: UVB-induced skin tumors in tumor-bearing SKH-1 mice; experiment: Growth of UVB-induced skin tumors in tumor-bearing SKH-1 mice; assay type: in vivo, mouse
Protocol: Female SKH-1 mice (7 to 8 weeks old) were treated with 30 mJ/cm^2 of UVB twice a week for 20 weeks. The UVB was stopped for 24 weeks. These tumor-bearing animals were divided into 2 groups (19 mice per group). […] The number (FIG. 1A) and size (FIG. 1B) of the tumors were recorded every 2 weeks.
The radius (r) was determined, and the volume was calculated by: volume=4πr^3/3.
Female SKH-1 mice were treated with 30 mJ/cm^2 of UVB twice a week for 20 weeks and UVB were stopped for 24 weeks. The resulting tumor-bearing animals were divided into 2 groups (19 mice per group). […] The number and size of the tumors were recorded every 2 weeks.

[2] = test system: prostate tumor cell line PC-3; experiment: Apoptosis in prostate tumor cell line PC-3; assay type: cell-based
[3] = test system: apoptotic sunburn cells in the epidermis of C57/BL/6J p53(+/+) mice; experiment: UVB-induced apoptotic sunburn cells in C57/BL/6J p53(+/+) mice, topical caffeine; assay type: in vivo, mouse
Protocol: The time course for apoptosis was determined by utilizing morphologically distinct sunburn cells as the marker for apoptosis. […] Accordingly, studies with a C57/BL/6J mouse were performed with a 60 mJ/cm^2 dose of UVB.
Measurement of apoptotic sunburn cells. Identification of apoptoic sunburn cells was based morphologically on cell shrinkage and nuclear condensation due to fragmentation of the cells. […] The percentage of apoptotic sunburn cells in the epidermis (basal plus suprabasal layers) was calculated from the number of these cells per 100 cells counted from the entire 20 mm length of epidermis for each skin section.

[4] = test system: apoptotic sunburn cells in the epidermis of FVB mice; experiment: UVB-induced apoptotic sunburn cells in FVB mice, topical caffeine; assay type: in vivo, mouse; details: 1.2 mg (6.2 μmole) in 100 μL acetone immediately, 0.5 and 2 hours after UVB 60 mJ/cm2; 6 hours
Excerpt: Apoptotic sunburn cells were identified by changes in morphology and counted.

[5] = 4% in 100 mg DERMABASE once a day 5 days a week, 8 weeks (FIG. 1)

## Cn1c(=O)c2c(ncn2C)n(C)c1=O.O=C([O-])c1ccccc1.[Na+] [Caffeine Sodium Benzoate, caffeine sodium benzoate]
[1]; [5]
  reduction in the number of tumors that developed per mouse vs DERMABASE: 2 fold
  reduction in tumor volume per mouse vs DERMABASE: ~3 fold
[1]; 4% in 100 mg DERMABASE, 8 weeks (FIG. 1A, 1B)
  number and size of tumors: significantly reduced
[2]; 0.1, 0.2 or 0.5 mM for 96 hours
  apoptosis in PC-3: dose-response relationship on apoptosis
[2]; PC-3, 0.1, 0.2 or 0.5 mM, 96 hours
  pro-apoptotic effect compared with caffeine: more potent than caffeine at all dose levels tested

## Cn1c(=O)c2c(ncn2C)n(C)c1=O [Caffeine, caffeine]
[3]; female p53(+/+), 1.2 mg in 100 μL acetone immediately, 0.5 and 2 h after UVB 60 mJ/cm^2, 6 hours after UVB
  enhancement of formation of UVB-induced apoptotic sunburn cells vs UVB plus acetone: 127%
[3]; female p53(+/+), no UVB
  effect on apoptosis in non-UVB-treated mice: no effect
[3]; male p53(+/+), no UVB
  effect on apoptosis in non-UVB-treated epidermis: no effect
[4]
  enhancement of UVB-induced increase of apoptotic sunburn cells: 120-150%
